# Measurements: PMC7587356, “High-Throughput Screening for Inhibitors of the SARS-CoV-2 Protease Using a FRET-Biosensor” (Molecules, 2020)
# Where a name gives a salt, the structure may show the parent alone. Read-outs that look alike come from different tables or passages of the source.
# Molecular target: SARS-CoV-2 3CLpro (Severe acute respiratory syndrome coronavirus 2, UniProt P0DTD1)
# Experiment: biochemical
# Type: biochemical
# Design: Replicate_1 / Replicate_2 / mean / mean (LOPAC_screen_w_protease): unit not given here
# Conditions: for inhibition at 5 µM: 4 h
# [1] = sheet LOPAC_screen_w_protease, primary screen with protease, mean of two replicates
# [2] = sheet LOPAC_screen_w_protease, primary screen with protease, replicate 1
# [3] = sheet LOPAC_screen_w_protease, primary screen with protease, replicate 2
# [4] = LOPAC1280 primary screen with protease, 5 µM compound, replicate 1, read-out: Replicate_1 (LOPAC_screen_w_protease)
# [5] = LOPAC1280 primary screen with protease, 5 µM compound, replicate 2, read-out: Replicate_2 (LOPAC_screen_w_protease)
# [6] = LOPAC1280 primary screen with protease, 5 µM compound, mean of the two replicates
# [7] = sheet LOPAC_screen_w_protease, LOPAC1280 at 5 µM, mean of two replicates, read-out: mean
# [8] = sheet LOPAC_screen_w_protease, LOPAC1280 at 5 µM, replicate 1, read-out: Replicate_1
# [9] = sheet LOPAC_screen_w_protease, LOPAC1280 at 5 µM, replicate 2, read-out: Replicate_2
# [10] = sheet LOPAC_screen_w_protease, LOPAC1280 primary screen at 5 µM, with protease, mean of the two replicates, read-out: mean
# [11] = sheet LOPAC_screen_w_protease, LOPAC1280 primary screen at 5 µM, with protease, replicate 1, read-out: Replicate_1
# [12] = sheet LOPAC_screen_w_protease, LOPAC1280 primary screen at 5 µM, with protease, replicate 2, read-out: Replicate_2
# [13] = sheet LOPAC_screen_w_protease, primary screen of LOPAC1280 at 5 µM with protease, mean of the two replicates, read-out: mean
# [14] = sheet LOPAC_screen_w_protease, primary screen of LOPAC1280 at 5 µM with protease, replicate 1, read-out: Replicate_1
# [15] = sheet LOPAC_screen_w_protease, primary screen of LOPAC1280 at 5 µM with protease, replicate 2, read-out: Replicate_2
# [16] = sheet LOPAC_screen_w_protease, primary screen with protease, 5 µM, mean of two replicates, read-out: mean
# [17] = sheet LOPAC_screen_w_protease, primary screen with protease, 5 µM, replicate 1, read-out: Replicate_1
# [18] = sheet LOPAC_screen_w_protease, primary screen with protease, 5 µM, replicate 2, read-out: Replicate_2
# [19] = LOPAC1280 primary screen with protease, 5 µM compound, mean of two replicates
# [20] = sheet LOPAC_screen_w_protease, primary screen with protease, compound at 5 µM, mean of two replicates
# [21] = sheet LOPAC_screen_w_protease, primary screen with protease, compound at 5 µM, replicate 1
# [22] = sheet LOPAC_screen_w_protease, primary screen with protease, compound at 5 µM, replicate 2
# [23] = LOPAC1280 primary screen with protease, 5 µM compound, replicate 1
# [24] = LOPAC1280 primary screen with protease, 5 µM compound, replicate 2
smiles,measurement,setting,value
Cl.N=C(N)NN [Aminoguanidine hydrochloride],mean,[1],2.381
same,Replicate_1,[2],2.212
same,Replicate_2,[3],2.55
Cn1c(=O)c2[nH]cnc2n(C)c1=O.Cn1c(=O)c2[nH]cnc2n(C)c1=O.NCCN [Aminophylline ethylenediamine],Replicate_1,,0.5539
same,Replicate_2,,-0.4553
same,mean,,0.04927
Nc1nc(N)c2nc(CNc3ccc(C(=O)N[C@@H](CCC(=O)O)C(=O)O)cc3)cnc2n1 [Aminopterin],inhibition at 5 µM,[4],2.12%
same,inhibition at 5 µM,[5],1.52%
same,mean (LOPAC_screen_w_protease),[6],1.819
CCCCc1oc2ccccc2c1C(=O)c1cc(I)c(OCCN(CC)CC)c(I)c1 [Amiodarone hydrochloride],inhibition at 5 µM,read-out: Replicate_1,2.09%
same,inhibition at 5 µM,read-out: Replicate_2,4.04%
same,inhibition at 5 µM,read-out: mean,3.06%
CN(C)CCCO[C@@H]1[C@H]2OC(C)(C)O[C@H]2O[C@@H]1[C@H](O)CO [Amiprilose hydrochloride],inhibition at 5 µM,[7],1.08%
same,inhibition at 5 µM,[8],1.63%
same,inhibition at 5 µM,[9],0.526%
CN(C)CCC=C1c2ccccc2CCc2ccccc21 [Amitriptyline hydrochloride],inhibition at 5 µM,[10],0.72%
same,inhibition at 5 µM,[11],0.391%
same,inhibition at 5 µM,[12],1.05%
N.S=C(S)N1CCCC1 [Ammonium pyrrolidinedithiocarbamate],mean (LOPAC screen with protease),"sheet LOPAC_screen_w_protease, primary screen at 5 µM, mean of two replicates",72.0091
same,Replicate_1 (LOPAC screen with protease),"sheet LOPAC_screen_w_protease, primary screen at 5 µM, replicate 1",73.369
same,Replicate_2 (LOPAC screen with protease),"sheet LOPAC_screen_w_protease, primary screen at 5 µM, replicate 2",70.6492
Clc1ccc2c(c1)C(N1CCNCC1)=Nc1ccccc1O2 [Amoxapine],inhibition at 5 µM,[13],3.27%
same,inhibition at 5 µM,[14],3.65%
same,inhibition at 5 µM,[15],2.89%
CCNC(=O)N1CCN(CCCC(c2ccc(F)cc2)c2ccc(F)cc2)CC1 [Amperozide hydrochloride],inhibition at 5 µM,[16],0.1%
same,inhibition at 5 µM,[17],0.58%
same,inhibition at 5 µM,[18],-0.38%
COc1cc(NS(C)(=O)=O)ccc1Nc1c2ccccc2nc2ccccc12 [Amsacrine hydrochloride],inhibition at 5 µM,"sheet LOPAC_screen_w_protease, LOPAC1280 primary screen with protease, 5 µM compound, mean of the two replicates, read-out: mean",4.23%
same,inhibition at 5 µM,"sheet LOPAC_screen_w_protease, LOPAC1280 primary screen with protease, 5 µM compound, replicate 1, read-out: Replicate_1",4.22%
same,inhibition at 5 µM,"sheet LOPAC_screen_w_protease, LOPAC1280 primary screen with protease, 5 µM compound, replicate 2, read-out: Replicate_2",4.24%
N=c1ccn2c(n1)O[C@H]1[C@H](O)[C@@H](CO)O[C@H]12 [Ancitabine hydrochloride],inhibition at 5 µM,"sheet LOPAC_screen_w_protease, primary screen with protease, mean of two replicates, read-out: mean",2.45%
same,inhibition at 5 µM,"sheet LOPAC_screen_w_protease, primary screen with protease, replicate 1, read-out: Replicate_1",2.42%
same,inhibition at 5 µM,"sheet LOPAC_screen_w_protease, primary screen with protease, replicate 2, read-out: Replicate_2",2.49%
C[C@]12CC[C@@H](O)C[C@@H]1CC[C@@H]1[C@@H]2CC[C@]2(C)C(=O)CC[C@@H]12 [Androsterone],inhibition at 5 µM,read-out: Replicate_1,1.73%
same,inhibition at 5 µM,read-out: Replicate_2,3.02%
same,inhibition at 5 µM,read-out: mean,2.38%
COc1ccc(C(=O)N2CCCC2=O)cc1 [Aniracetam],inhibition at 5 µM,"sheet LOPAC_screen_w_protease, primary screen at 5 µM, mean of two replicates, read-out: mean (LOPAC screen with protease)",6.69%
same,inhibition at 5 µM,"sheet LOPAC_screen_w_protease, primary screen at 5 µM, replicate 1, read-out: Replicate_1 (LOPAC screen with protease)",9.93%
same,inhibition at 5 µM,"sheet LOPAC_screen_w_protease, primary screen at 5 µM, replicate 2, read-out: Replicate_2 (LOPAC screen with protease)",3.46%
Cl.c1ccc(CN(CC2=NCCN2)c2ccccc2)cc1 [Antozoline hydrochloride],mean,"sheet LOPAC_screen_w_protease, primary screen of LOPAC1280 at 5 µM with protease, mean of the two replicates",3.208
same,Replicate_1,"sheet LOPAC_screen_w_protease, primary screen of LOPAC1280 at 5 µM with protease, replicate 1",3.9302
same,Replicate_2,"sheet LOPAC_screen_w_protease, primary screen of LOPAC1280 at 5 µM with protease, replicate 2",2.486
O=c1cc(-c2ccc(O)cc2)oc2cc(O)cc(O)c12 [Apigenin],inhibition at 5 µM,read-out: Replicate_1,0.663%
same,inhibition at 5 µM,read-out: Replicate_2,-0.402%
same,inhibition at 5 µM,read-out: mean,0.131%
NC(N)=NCCCCN=C(N)N [Arcaine sulfate],inhibition at 5 µM,[10],0.608%
same,inhibition at 5 µM,[11],1.59%
same,inhibition at 5 µM,[12],-0.37%
C#CCOC(=O)C1=CCCN(C)C1 [Arecaidine propargyl ester hydrobromide],inhibition at 5 µM,[7],1.23%
same,inhibition at 5 µM,[8],0.854%
same,inhibition at 5 µM,[9],1.62%
COC(=O)C1=CCCN(C)C1 [Arecoline hydrobromide],inhibition at 5 µM,[4],1.64%
same,inhibition at 5 µM,[5],1.16%
same,mean (LOPAC_screen_w_protease),[19],1.398
CC1=C(/C=C/C(C)=C/C=C/C(C)=C/C=C/C=C(C)/C=C/C=C(C)/C=C/C2=C(C)C(=O)[C@@H](O)CC2(C)C)C(C)(C)C[C@H](O)C1=O [Astaxanthin],inhibition at 5 µM,[13],3.4%
same,inhibition at 5 µM,[14],2.58%
same,inhibition at 5 µM,[15],4.22%
C[N+]1(C)[C@@H]2CC[C@H]1C[C@@H](OC(=O)C(CO)c1ccccc1)C2 (stereo partly drawn) [Atropine methyl bromide],inhibition at 5 µM,[4],2.3%
same,inhibition at 5 µM,[5],1.25%
same,mean (LOPAC_screen_w_protease),[6],1.779
C[N+]1(C)[C@@H]2CC[C@H]1C[C@@H](OC(=O)C(CO)c1ccccc1)C2 (stereo partly drawn) [Atropine methyl nitrate],inhibition at 5 µM,[16],-0.0687%
same,inhibition at 5 µM,[17],0.687%
same,inhibition at 5 µM,[18],-0.825%
"O=C(O)C1=CC(=C(c2ccc(O)c(C(=O)O)c2)c2ccc(O)c(C(=O)O)c2)C=CC1=O [Aurintricarboxylic acid, reference compound]",inhibition at 5 µM,read-out: Replicate_1 (LOPAC screen with protease),31.5%
same,inhibition at 5 µM,read-out: Replicate_2 (LOPAC screen with protease),31.9%
same,inhibition at 5 µM,read-out: mean (LOPAC screen with protease),31.7%
Cn1cnc([N+](=O)[O-])c1Sc1ncnc2nc[nH]c12 [Azathioprine],mean (LOPAC_screen_w_protease),,1.638
same,inhibition at 5 µM,read-out: Replicate_1 (LOPAC_screen_w_protease),1.71%
same,inhibition at 5 µM,read-out: Replicate_2 (LOPAC_screen_w_protease),1.57%
O=C(O)CCCCCCCC(=O)O [Azelaic acid],inhibition at 5 µM,[10],0.767%
same,inhibition at 5 µM,[11],1.56%
same,inhibition at 5 µM,[12],-0.0221%
CCN1CCc2nc(N)oc2CC1.Cl.Cl [B-HT 933 dihydrochloride],mean,[20],2.82
same,Replicate_1,[21],2.163
same,Replicate_2,[22],3.476
COc1ccccc1N1CCN(CCN2C(=O)CC3(CCCC3)CC2=O)CC1.Cl.Cl [BMY 7378 dihydrochloride],mean,[20],2.822
same,Replicate_1,[21],2.1144
same,Replicate_2,[22],3.53
COc1ccccc1N1CCN(CCCCNC(=O)c2ccc3ccccc3c2)CC1 [BP 897],inhibition at 5 µM,[4],0.668%
same,inhibition at 5 µM,[5],1.98%
same,mean (LOPAC_screen_w_protease),[19],1.323
OC(CN1CCN(c2cccc(Cl)c2)CC1)C(c1ccccc1)c1ccccc1 (stereo not drawn) [BRL 15572],mean (LOPAC_screen_w_protease),[6],1.912
same,Replicate_1 (LOPAC_screen_w_protease),[23],0.6201
same,Replicate_2 (LOPAC_screen_w_protease),[24],3.204
C[C@H](Cc1ccc(OCC(=O)[O-])cc1)NC[C@H](O)c1cccc(Cl)c1.[Na+] [BRL 37344 sodium],mean,[1],2.226
same,Replicate_1,[2],0.8642
same,Replicate_2,[3],3.588
Cc1ccc([N+](=O)[O-])cc1S(=O)(=O)N(C)C [BRL 50481],mean (LOPAC_screen_w_protease),[19],1.647
same,Replicate_1 (LOPAC_screen_w_protease),[23],1.025
same,Replicate_2 (LOPAC_screen_w_protease),[24],2.268
Cl.O=C(Cc1ccc(Cl)c(Cl)c1)N1CCCCC1CN1CCCC1 (stereo not drawn) [BRL 52537 hydrochloride],mean (LOPAC_screen_w_protease),[19],1.672
same,Replicate_1 (LOPAC_screen_w_protease),[23],2.192
same,Replicate_2 (LOPAC_screen_w_protease),[24],1.152
CN1CCC(c2c[nH]c3ccc(O)cc23)CC1.O=C(O)/C=C\C(=O)O [BRL 54443 maleate],mean,[1],2.426
same,Replicate_1,[2],0.4828
same,Replicate_2,[3],4.37
Cl.c1ccc2sc(C3(N4CCCCC4)CCCCC3)cc2c1 [BTCP hydrochloride],mean (LOPAC_screen_w_protease),[6],2.11
same,Replicate_1 (LOPAC_screen_w_protease),[23],1.768
same,Replicate_2 (LOPAC_screen_w_protease),[24],2.452
Cl.c1ccc2nc(C3=NCCN3)ccc2c1 [BU224 hydrochloride],mean (LOPAC_screen_w_protease),[19],1.603
same,Replicate_1 (LOPAC_screen_w_protease),[23],1.353
same,Replicate_2 (LOPAC_screen_w_protease),[24],1.8522
S=C=Nc1ccc2oc(C3=NCCN3)cc2c1 [BU99006],Replicate_1,,4.032
same,Replicate_2,,1.831
same,mean,,2.931
O=C(O)CCCCCCC1C(=O)NC(=O)N1CCC(O)C1CCCCC1 (stereo not drawn) [BW 245C],Replicate_1 (LOPAC_screen_w_protease),,2.361
same,Replicate_2 (LOPAC_screen_w_protease),,0.3585
same,mean (LOPAC_screen_w_protease),,1.3595
